Results published in patent US20090298068A1, “METHOD AND TEST KIT FOR THE DIAGNOSIS AND/OR MAKING PREDICTIONS ABOUT AND/OR FOR THE ASSESSMENT OF THE EFFICACY OF THERAPEUTIC AGENTS FOR THE TREATMENT OF OVARIAN CANCER AND METHOD OF PLANNING A REGIMEN FOR THE TREATMENT OF OVARIAN CANCER” (priority 2006, published 2009).

System: TUSC3 expression in the hypermethylated MZ6 cell line
Assay: Restoration of TUSC3 expression by DNA demethylation in ovarian cancer cell lines (real time RT-PCR)
Format: cell-based, human
Settings: 72-hour treatment
Procedure: In addition, 32 ovarian cancer cell lines were studied, which were started from ovarian cancer tissue samples of 28 patients and cultivated as described (Mobus V1 Gerharz C D, Press U, et al, Morphological, immunohistochemical and biochemical characterization of 6 newly established human ovarian carcinoma cell lines. Int J Cancer. 1992; 52:76-84).
For bisulfite treatment, 1 μg genomic DNA was digested with the restriction enzymes Hind III and Xba I, precipitated, dissolved and denatured for 20 minutes in 0.35 M NaOH. Then, the DNA was treated in 8 cycles (2 hrs. 75° C. and 1 min. 95° C.) with 1.75 M sodium bisulfite, 5.23 M urea and 0.52 mM hydroquinone in a PCR cycler. Using the QIAEX II Gel Extraction Kit (Qiagen, Hilden, Germany), the DNA was cleaned and the reaction was ended with 0.32 M NaOH (20 min. 37° C.). Finally, the DNA was precipitated with 1 μl glycogen with NH4 acetate EtOH as the carrier, rinsed with 70% EtOH and dissolved in 40 μl H2O. […] The PCR products were analyzed on 3% agarose gel, stained with ethidium bromide. […] DNA demethylation of the cancer cell lines was carried out by a 72-hour treatment with 1 and 2.5 μM 5-aza-deoxycytidine (Sigma-Aldrich, St. Louis, Mo., USA) in cell culture medium, and the relative TUSC3 expression was evaluated by real time RT-PCR as described below. […]

SMILES: Nc1ncn([C@H]2C[C@H](O)[C@@H](CO)O2)c(=O)n1 [5-aza-deoxycytidine]
- TUSC3 expression, times greater than sham-treated samples (relative to B-2-microglobulin) (2.5 μM, MZ6 cell line, sham-treated below detection limit, mean of three experiments): at least 9.5 times
- Restoration of TUSC3 expression (1 and 2.5 μM, hypermethylated MZ6 cell line, concentration-dependent): restoration of TUSC3 expression
